Results on 3 compounds are retold here after PMC3904662 (Nature, 2013).

One test has as its target Δ13 LeuBAT (Aquifex aeolicus, UniProt O67854, A261V/E290S/G24D/G408T/I106S/I262L/I359G/N21Y/P362G/S256G/T254S/T409G/Y265F). As to the kind of experiment: biochemical.
In test [1] the target is hSERT (human serotonin transporter). To be noted: cited from earlier work.
The target in test [2] is T1, wild-type LeuT (Aquifex aeolicus, UniProt O67854). Kind of test: biochemical. To be noted: saturation binding of 3H-mazindol.
In test [3] the target is T1, wild-type LeuT.

Read-outs that look alike come from different tables or passages of the source.

As a reminder, the Kd is the equilibrium constant for the complex coming apart. For the compound `OC1(c2ccc(Cl)cc2)c2ccccc2C2=NCCN21` (stereo not drawn) [mazindol], the Kd at Δ13 LeuBAT is 112 ± 18 nM; in test [1] it was 103 ± 4.7 nM; on wild-type LeuT [2], 22300 ± 5400 nM.
For the compound `C[C@H](N)C(=O)O` [alanine], at wild-type LeuT [3] (3 µM 3[H]-sertraline with 5 mM Ala), the “suppression of sertraline binding to wild-type LeuT” value was “could not suppress the binding of sertraline”.
Take `Fc1ccc([C@@H]2CCNC[C@H]2COc2ccc3c(c2)OCO3)cc1` [paroxetine]: the Kd on Δ13 LeuBAT is 431 ± 24 nM; on wild-type LeuT [3] (saturation binding of 3H-labeled drug, n=3, ±s.e.m) it was “could not be fit to an isotherm because of low affinity”.
